According to US7927790B2, “Suppression of HIV-1 replication via inhibition of human flap endonuclease-1-mediated HIV-1 central DNA flap processing” (priority 2005, dated 2011):
Entries after “also recorded” stand apart in the source; their conditions may differ.

Columns and labels:
FEN-1 = FEN-1 (Homo sapiens, UniProt P39748); assay: FEN-1 nuclease assay with HIV CDF and regular 5′ flap model substrates; format: biochemical
Description: 0.25 or 0.5 pmol of purified recombinant FEN-1 were mixed with 1 pmol of regular 5′ flap substrate with a 3′ flap of single nucleotide or HIV CDF substrate, respectively in the presence of 0, 0.1, 0.2, 0.4, 0.6, 0.8, and 1.0 mM pentamidine isethionate salt. The reaction was carried out at 37° C. for 30 minutes. Substrates and products were analyzed with DNA sequencing PAGE and visualized with radio-autograph (upper panel). The amount of cleavage products and non-cleaved substrates were quantified with ImagineQuant and were shown in the bottom panel.
One pmol of HIV CDF substrate were mixed with 0, 0.01, 0.1, 1, and 3 pmol of purified recombinant FEN-1 in the absence or presence of 0.4 mM pentamidine isethionate salt. The reaction was carried out at 37° C. for 30 minutes. Substrates and products were analyzed with DNA sequencing PAGE and visualized with radio-autograph (upper panel). The amount of cleavage product and non-cleaved substrate were quantified with ImagineQuant and were shown in the bottom panel.
FIG. 12 is a graph line and chart showing kinetic analysis of FEN-1 cleavage of HIV CDF substrates in the absence and presence of pentamidine. 1 pmol of FEN-1 was incubated with 0, 0.125, 0.25, 0.375, 0.5, 1, and 2 pmol of HIV CDF substrates. The reaction were carried out at 37° C. for 10 min. The amount of cleavage product and non-cleaved substrate were quantified with ImagineQuant. The Michaelis-Menten kinetic parameters Km and Kcat (Bottom panel) were calculated with double-reciprocal plots of 1/v versus 1/[s] (Upper panel).
Nuclease assays. DNA model substrates were prepared as previously described (Zheng 2005). FEN-1 nuclease and/or D181A mutant was incubated with 1 pmol of indicated DNA substrates at 30° C. for 15 minutes. DNA substrates and products were separated in DNA sequencing PAGE and visualized with autoradiography.
Finally, the third criteria is in vitro inhibition of HIV-CDF processing. The inhibition of FEN-1 cleavage of HIV-CDF and regular 5′ flap structures by molecules selected after criteria 2 are examined in this test. Only the molecules that inhibit FEN-1 cleavage of HIV-CDF but not the regular 5′ flap structures are qualified for in vivo studies. The inhibition efficacy of HIV replication in H9 and CEM T cell lines by small molecules is determined with the HIV reverse transcriptase inhibitor AZT used as an inhibition control.

HIV IIIB virus = assay: Antiviral challenge assay, HIV IIIB replication in H9 or CEM cells, p24; format: cell-based, HIV-1; settings: for suppression of HIV replication (p24) / inhibition of HIV replication (p24): HIV IIIB, 7 days; for suppression of HIV replication (p24): 15 μM pentamidine; for inhibition of HIV replication (p24): 10 μM AZT
Description: H9 cells or CEM cells were challenged with HIV IIIB virus in the absence (PC) or presence of 15 μM pentamidine (PTD) or 10 μM AZT. Cells were grown for 7 days and the concentration of p24 were determined and the inhibition percentage were calculated. FIG. 13B: H9 cells or CEM cells were challenged with HIV IIIB virus in the absence or presence of varying concentration of pentamidine (PTD) or AZT. Cells were grown for 7 days and the concentration of p24 were determined.
The next experiment examined whether pentamidine could inhibit HIV replication in vivo. The H9 cells and CEM cells were challenged with HIV IIIB virus in the absence or presence of 15 μM pentamidine or 10 μM AZT, a HIV reverse transcriptase inhibitor.
Antiviral challenge assays using infectious laboratory and other HIV-1 strains: Appropriate cells, screened for viability and growth kinetics, are challenged with HIV-1 strain IIIB, NL4-3, JRFL or primary isolates. This is a modification of a standard method described by Ho (Ho 1991) for virus neutralization. The resultant inoculum is titrated by ID50 in uninfected CEM, H9 or PBMC cultures. 0.01 MOI HIV is inoculated onto 10^6 candidate cells for six hours at 37° C., and then washed three times with PBS. For screening assays, each cell culture supernatant is examined on day seven post infection and examined for reverse transcriptase activity or p24 concentration. For confirmation assays, cultures are followed for day 7, 14, 21 and 28 observations. Cells are fed twice weekly by removing one-half of the media. Viral inhibition is defined >50% reduction in RT activity or p24 compared with control culture, which were mock-treated.

[1] = test system: HIV-1 strain NL4-3 and III B; assay: HIV-1 replication in CEM T-cells over-expressing FEN-1 or D181A, secreted p24; format: cell-based
Description: In order to test the effects of FEN-1 function on HIV replication in its natural host cells, human T-cells, the CEM cells with the same construct shown in FIG. 4A were transfected under selection of G418. CEM cells (C), CEM cells expressing the c-myc-tagged hFEN-1 (F), or D181A mutant (A) were seeded at 0.5×10^4 cells per well in a 12-well plate. Duplicate plates were prepared for each cell line. The cells were challenged with two HIV-1 strains: NL4-3 and III B. Virus challenge proceeded at both 50 TCID50 and 5 TCID50. The cell culture supernatants were collected and the HIV-1 p24 was measured weekly for four weeks post-infection.
HIV-1 replication in CEM cells. CEM cells, or CEM cells infected with the hFEN-1 or D181A retroviral vector, were seeded at 0.5×10^4 cells per well of a 12-well plate. Duplicate plates were prepared for each cell line. The cells were challenged with HIV-1 strain NL4-3 and III B. Viral challenge was conducted at both 50 TCID50. Cell culture supernatants were collected and the HIV-1 p24 was measured weekly for four weeks post-infection. Syncytium formation due to the HIV-1 infection was monitored, and cells were photographed under a microscope weekly (FIGS. 6-7).

HIV-1 vector HXB2-Hyg = assay: HIV-1 infection colony assay (hygromycin-resistant colonies) in HeLa CD4+ cells; format: cell-based; settings: compared to control HeLa CD4+ cells
Description: The cells are infected with a modified HIV-1 virus. Upon integration, the infected cells become hygromycin-resistant due to the expression of the drug-resistant gene from the proviral DNA. The integration efficiency is then determined by counting the colonies selected on Hygromycin B. The integration is confirmed by LTR-Tag assay.
A modified HIV-1 virus vector derived from strain HXB2 (HXB2-Hyg) with a newly created Bpm I site near the end of the U5 region in its 5′ LTR is prepared. This virus genome also contains a hygromycin-resistant gene for selecting virus-infected cells. This VSV-G pseudotyped virus is used to infect LaD cells along with LaF and LaP cells with m.o.i. of 1.0. The infected cells are cultured in a medium containing 200 μg/ml of Hygromycin B for 2 weeks. The virus-infected cells with the stable integrated provirus are hygromycin-resistant and grow into colonies. The colonies are stained with 0.2% crystal violet in 10% phosphate-buffered formalin (pH 7.0) and counted.
An LTR-Tag analysis method is used to detect HIV integration. […] For this reason, there are many fewer ^32P-labeled LTR-Tags prepared from the D181A overexpressing LaD cells in comparison to the radioactivity-labeled LTR-Tags prepared from the LaP cells. […]
HIV-1 infection colony assay. […] Hygromycin-resistant colonies were stained with 0.2% crystal violet in 70% ethanol, and the number of colonies was counted.

HIV-1 cDNA integration = assay: HIV-1 integration assay, Southern blot hybridization of host genomic DNA; format: cell-based; settings: expression in HeLa cells
Description: To further validate that inhibition of FEN-1 nuclease activity reduced HIV-1 cDNA integration, genomic DNA was isolated and the integration of viral cDNA into the host genome was detected by Southern blot hybridization. […] Both of the experiments indicate that the integration of HIV may be impaired under a FEN-1 deficient background.
HIV-1 integration assay. Genomic DNA was isolated from HIV-1 infected cells according to a previous protocol (Chen 1998). 20 μg of DNA was digested with EcoRV and BamHI and resolved on a native agarose gel. A 0.8 kb of HIV-1 specific DNA fragment, released by digestion of HIV cDNA with BamHI and BgIII, was used as a probe in Southern blot hybridization.

[2] = in the presence of 400 μM of pentamidine

Sequence of FEN-1 (P39748 whole entry): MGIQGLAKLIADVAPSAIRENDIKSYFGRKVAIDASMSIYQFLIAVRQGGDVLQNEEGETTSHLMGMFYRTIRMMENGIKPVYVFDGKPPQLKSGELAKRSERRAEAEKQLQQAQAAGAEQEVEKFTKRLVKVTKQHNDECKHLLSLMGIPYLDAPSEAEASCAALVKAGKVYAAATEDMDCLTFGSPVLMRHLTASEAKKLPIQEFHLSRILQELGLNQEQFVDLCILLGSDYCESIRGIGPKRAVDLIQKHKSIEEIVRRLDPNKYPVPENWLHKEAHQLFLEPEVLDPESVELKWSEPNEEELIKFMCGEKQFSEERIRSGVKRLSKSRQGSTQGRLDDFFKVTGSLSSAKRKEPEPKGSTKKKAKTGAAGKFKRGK

## N=C(N)c1ccc(OCCCCCOc2ccc(C(=N)N)cc2)cc1 [pentamidine]
FEN-1
  effect on FEN-1 cleavage of regular 5′ flap structures resembling RNA-DNA primers: little effect
FEN-1; Michaelis-Menten, double-reciprocal plots, 37° C., 10 min
  effect on kcat and Km of FEN-1 cleavage of HIV CDF substrates: decrease
FEN-1; concentrations higher than 1 mM
  cleavage of both HIV CDF and regular 5′ flap substrates: completely inhibited
FEN-1; [2]
  FEN-1's activity cleaving regular 5′ flap substrates retained: greater than 80%
  FEN-1 cleavage of HIV CDF structures suppressed: 90%
HIV IIIB virus; CEM cells
  suppression of HIV replication (p24): 69.3%
HIV IIIB virus; H9 cells
  suppression of HIV replication (p24): 98.8%
HIV IIIB virus; T-cell lines
  inhibitory effect on HIV replication compared with AZT: equal to or more effective than AZT; also recorded: equivalent to AZT
HIV IIIB virus; another T-cell line
  inhibitory effect on HIV-1 replication relative to AZT: about 70 % that of AZT

## D181A: dominant negative point mutant of human FEN-1, binds flap DNA but deficient in catalysis and nuclear localization
FEN-1; HIV CDF substrate, mutant 8-10 folds higher than wild type protein concentration
  inhibition of wild type FEN-1 flap endonuclease activity in vitro: almost completely inhibit
FEN-1; d-flap substrates, model for host cell RNA primer removal
  inhibition of FEN-1 activity with d-flap substrates: does not inhibit
[1]; stable T-cell lines over-expressing the mutant
  HIV-1 replication suppressed, secreted HIV p24 protein concentrations: more than 99.9%
[1]; transduced CEM cells, HIVIIIB and HIVNL4-3, weekly for four weeks
  HIV inhibition, culture supernatant p24: strong HIV inhibition
HIV-1 vector HXB2-Hyg
  decrease of HIV-1 integration, hygromycin-resistant CFUs: more than 95 % CFUs
HIV-1 cDNA integration
  HIV-1 cDNA integration into host genome: significantly decreased

## Cc1cn([C@H]2C[C@H](N=[N+]=[N-])[C@@H](CO)O2)c(=O)[nH]c1=O [AZT]
HIV IIIB virus; CEM cells
  inhibition of HIV replication (p24): 98.6%
HIV IIIB virus; H9 cells
  inhibition of HIV replication (p24): 100%
